Measurements: ChEMBL document CHEMBL1132005, “Structure-activity relationship in two series of aminoalkyl substituted coumarin inhibitors of gyrase B” (1999)
Values after ≈ are worked out from the molar mass of the structure shown.

Columns and labels:
[1] = system: Staphylococcus epidermidis; test: In vitro antibacterial activity against Staphylococcus epidermidis 012GO39 OxaTei-R; assay type: functional
Streptococcus pyogenes = test: In vitro antibacterial activity against Streptococcus pyogenes O2A1UC1
[2] = biological target: DNA gyrase (Escherichia coli) (UniProt P0AES6+P0AES4); test: In vitro inhibition of supercoiling activity of Escherichia coli DNA gyrase as the ratio of IC50 of Novobiocin and IC50 of compound; assay type: protein-complex assay
Staphylococcus aureus [3] = test: In vitro antibacterial activity against Staphylococcus aureus 011GO76 OfloOxaEry-R; assay type: functional
Staphylococcus aureus [4] = test: In vitro antibacterial activity against Staphylococcus aureus 011HT1 Nov-R; assay type: functional
Staphylococcus aureus [5] = test: In vitro antibacterial activity against Staphylococcus aureus 011HT3; assay type: functional
Enterococcus faecium = test: In vitro antibacterial activity against Enterococcus faecium 02D31P2 VanTeiEry-R; assay type: functional

MIC [1] [µg/mL]	MIC (Streptococcus pyogenes) [µg/mL]	Ratio [2]	MIC (Staphylococcus aureus [3]) [µg/mL]	MIC (Staphylococcus aureus [4]) [µg/mL]	MIC (Staphylococcus aureus [5]) [µg/mL]	MIC (Enterococcus faecium) [µg/mL]	SMILES
5 (≈ 10.3 µM)	40 (≈ 82.2 µM)	1.8	40 (≈ 82.2 µM)	> 40	10 (≈ 20.6 µM)	> 40	CO[C@@H]1[C@@H](OC(=O)c2ccc(C)[nH]2)[C@@H](O)[C@H](Oc2ccc3c(CN)cc(=O)oc3c2C)OC1(C)C
1.2 (≈ 2.23 µM)	5 (≈ 9.3 µM)	1	5 (≈ 9.3 µM)	> 40	1.2 (≈ 2.23 µM)	> 40	CO[C@@H]1[C@@H](OC(=O)c2ccc(C)[nH]2)[C@@H](O)[C@H](Oc2ccc3c(Cn4ccnc4)cc(=O)oc3c2C)OC1(C)C
5 (≈ 7.88 µM)	10 (≈ 15.8 µM)	0.33	10 (≈ 15.8 µM)	> 40	5 (≈ 7.88 µM)	> 40	CO[C@@H]1[C@@H](OC(=O)c2ccc(C)[nH]2)[C@@H](O)[C@H](Oc2ccc3c(OCCN4CCN(C)CC4)c(Cl)c(=O)oc3c2C)OC1(C)C
2.5 (≈ 4.03 µM)	5 (≈ 8.05 µM)	0.17	2.5 (≈ 4.03 µM)	> 40	1.2 (≈ 1.93 µM)	> 40	CO[C@@H]1[C@@H](OC(=O)c2ccc(C)[nH]2)[C@@H](O)[C@H](Oc2ccc3c(OCCN4CCOCC4)c(Cl)c(=O)oc3c2C)OC1(C)C
2.5 (≈ 4.16 µM)	5 (≈ 8.32 µM)	0.66	–	40 (≈ 66.6 µM)	0.6 (≈ 0.999 µM)	20 (≈ 33.3 µM)	CO[C@@H]1[C@@H](OC(=O)c2ccc(C)[nH]2)[C@@H](O)[C@H](Oc2ccc3c(OCCN4CCC[C@H]4CO)cc(=O)oc3c2C)OC1(C)C
2.5 (≈ 4.59 µM)	10 (≈ 18.4 µM)	0.57	5 (≈ 9.18 µM)	40 (≈ 73.4 µM)	2.5 (≈ 4.59 µM)	> 40	CO[C@@H]1[C@@H](OC(=O)c2ccc(C)[nH]2)[C@@H](O)[C@H](Oc2ccc3c(OCCN(C)C)cc(=O)oc3c2C)OC1(C)C
0.15 (≈ 0.256 µM)	2.5 (≈ 4.26 µM)	0.22	0.6 (≈ 1.02 µM)	10 (≈ 17 µM)	0.3 (≈ 0.511 µM)	20 (≈ 34.1 µM)	CO[C@@H]1[C@@H](OC(=O)c2ccc(C)[nH]2)[C@@H](O)[C@H](Oc2ccc3c(OCCN4CCOCC4)cc(=O)oc3c2C)OC1(C)C
0.6 (≈ 0.95 µM)	1.2 (≈ 1.9 µM)	0.17	5 (≈ 7.91 µM)	5 (≈ 7.91 µM)	1.2 (≈ 1.9 µM)	5 (≈ 7.91 µM)	CO[C@@H]1[C@@H](OC(=O)c2ccc(C)[nH]2)[C@@H](O)[C@H](Oc2ccc3c(CN4CCNCC4c4ccccc4)cc(=O)oc3c2C)OC1(C)C (stereo partly drawn)
1.2 (≈ 2.32 µM)	5 (≈ 9.68 µM)	0.81	5 (≈ 9.68 µM)	20 (≈ 38.7 µM)	2.5 (≈ 4.84 µM)	20 (≈ 38.7 µM)	CO[C@@H]1[C@@H](OC(=O)c2ccc(C)[nH]2)[C@@H](O)[C@H](Oc2ccc3c(OCCN)cc(=O)oc3c2C)OC1(C)C
< 0.04	1.2 (≈ 2.11 µM)	0.57	10 (≈ 17.6 µM)	20 (≈ 35.2 µM)	0.3 (≈ 0.528 µM)	10 (≈ 17.6 µM)	CO[C@@H]1[C@@H](OC(=O)c2ccc(C)[nH]2)[C@@H](O)[C@H](Oc2ccc3c(OCCn4cncn4)cc(=O)oc3c2C)OC1(C)C
1.2 (≈ 1.9 µM)	2.5 (≈ 3.96 µM)	0.28	5 (≈ 7.91 µM)	10 (≈ 15.8 µM)	1.2 (≈ 1.9 µM)	10 (≈ 15.8 µM)	CO[C@@H]1[C@@H](OC(=O)c2ccc(C)[nH]2)[C@@H](O)[C@H](Oc2ccc3c(CN4CCNC(c5ccccc5)C4)cc(=O)oc3c2C)OC1(C)C (stereo partly drawn)
0.6 (≈ 1.05 µM)	2.5 (≈ 4.39 µM)	0.35	10 (≈ 17.6 µM)	20 (≈ 35.1 µM)	0.6 (≈ 1.05 µM)	20 (≈ 35.1 µM)	CO[C@@H]1[C@@H](OC(=O)c2ccc(C)[nH]2)[C@@H](O)[C@H](Oc2ccc3c(CSc4ncc[nH]4)cc(=O)oc3c2C)OC1(C)C
5 (≈ 8.63 µM)	40 (≈ 69.1 µM)	0.33	20 (≈ 34.5 µM)	> 40	10 (≈ 17.3 µM)	> 40	CO[C@@H]1[C@@H](OC(=O)c2ccc(C)[nH]2)[C@@H](O)[C@H](Oc2ccc3c(OCCN(C)C)c(Cl)c(=O)oc3c2C)OC1(C)C
2.5 (≈ 4.28 µM)	20 (≈ 34.3 µM)	1	10 (≈ 17.1 µM)	> 40	5 (≈ 8.57 µM)	> 40	CCN1CCN(Cc2cc(=O)oc3c(C)c(O[C@@H]4OC(C)(C)[C@H](OC)[C@@H](OC(=O)c5ccc(C)[nH]5)[C@H]4O)ccc23)CC1
0.3 (≈ 0.526 µM)	0.6 (≈ 1.05 µM)	0.4	0.6 (≈ 1.05 µM)	10 (≈ 17.5 µM)	0.3 (≈ 0.526 µM)	2.5 (≈ 4.38 µM)	CO[C@@H]1[C@@H](OC(=O)c2ccc(C)[nH]2)[C@@H](O)[C@H](Oc2ccc3c(CSc4nc[nH]n4)cc(=O)oc3c2C)OC1(C)C
1.2 (≈ 2.26 µM)	5 (≈ 9.42 µM)	2.3	2.5 (≈ 4.71 µM)	20 (≈ 37.7 µM)	2.5 (≈ 4.71 µM)	> 40	CNCCOc1cc(=O)oc2c(C)c(O[C@@H]3OC(C)(C)[C@H](OC)[C@@H](OC(=O)c4ccc(C)[nH]4)[C@H]3O)ccc12
0.6 (≈ 1.05 µM)	2.5 (≈ 4.38 µM)	0.22	1.2 (≈ 2.1 µM)	20 (≈ 35 µM)	0.6 (≈ 1.05 µM)	20 (≈ 35 µM)	CO[C@@H]1[C@@H](OC(=O)c2ccc(C)[nH]2)[C@@H](O)[C@H](Oc2ccc3c(CN4CCC(O)CC4)cc(=O)oc3c2C)OC1(C)C
5 (≈ 9 µM)	20 (≈ 36 µM)	2.3	20 (≈ 36 µM)	> 40	10 (≈ 18 µM)	> 40	CO[C@@H]1[C@@H](OC(=O)c2ccc(C)[nH]2)[C@@H](O)[C@H](Oc2ccc3c(CN4CCNCC4)cc(=O)oc3c2C)OC1(C)C
1.2 (≈ 2 µM)	10 (≈ 16.7 µM)	0.5	2.5 (≈ 4.17 µM)	20 (≈ 33.4 µM)	1.2 (≈ 2 µM)	40 (≈ 66.7 µM)	CO[C@@H]1[C@@H](OC(=O)c2ccc(C)[nH]2)[C@@H](O)[C@H](Oc2ccc3c(OCCN4CCN(C)CC4)cc(=O)oc3c2C)OC1(C)C
2.5 (≈ 4.39 µM)	10 (≈ 17.6 µM)	0.46	5 (≈ 8.78 µM)	40 (≈ 70.2 µM)	5 (≈ 8.78 µM)	> 40	CO[C@@H]1[C@@H](OC(=O)c2ccc(C)[nH]2)[C@@H](O)[C@H](Oc2ccc3c(CN4CCN(C)CC4)cc(=O)oc3c2C)OC1(C)C
0.6 (≈ 0.973 µM)	10 (≈ 16.2 µM)	0.25	> 40	40 (≈ 64.9 µM)	1.2 (≈ 1.95 µM)	> 40	CO[C@@H]1[C@@H](OC(=O)c2ccc(C)[nH]2)[C@@H](O)[C@H](Oc2ccc3c(OCCN4CCOC(CO)C4)cc(=O)oc3c2C)OC1(C)C (stereo partly drawn)
0.08 (≈ 0.124 µM)	1.2 (≈ 1.86 µM)	0.63	> 40	> 40	0.6 (≈ 0.931 µM)	> 40	CO[C@@H]1[C@@H](OC(=O)c2ccc(C)[nH]2)[C@@H](O)[C@H](Oc2ccc3c(OCCn4cnc(-c5cccnc5)c4)cc(=O)oc3c2C)OC1(C)C
1.2 (≈ 2.1 µM)	2.5 (≈ 4.38 µM)	0.3	1.2 (≈ 2.1 µM)	10 (≈ 17.5 µM)	0.6 (≈ 1.05 µM)	20 (≈ 35 µM)	CO[C@@H]1[C@@H](OC(=O)c2ccc(C)[nH]2)[C@@H](O)[C@H](Oc2ccc3c(CN4CCC[C@H]4CO)cc(=O)oc3c2C)OC1(C)C
0.6 (≈ 0.965 µM)	1.2 (≈ 1.93 µM)	0.33	10 (≈ 16.1 µM)	10 (≈ 16.1 µM)	0.6 (≈ 0.965 µM)	10 (≈ 16.1 µM)	CO[C@@H]1[C@@H](OC(=O)c2ccc(C)[nH]2)[C@@H](O)[C@H](Oc2ccc3c(CN4CCNC(c5ccco5)C4)cc(=O)oc3c2C)OC1(C)C (stereo partly drawn)
0.6 (≈ 1.11 µM)	2.5 (≈ 4.64 µM)	0.4	2.5 (≈ 4.64 µM)	40 (≈ 74.3 µM)	1.2 (≈ 2.23 µM)	40 (≈ 74.3 µM)	CO[C@@H]1[C@@H](OC(=O)c2ccc(C)[nH]2)[C@@H](O)[C@H](Oc2ccc3c(Cn4cncn4)cc(=O)oc3c2C)OC1(C)C
< 0.04	0.6 (≈ 1 µM)	0.33	5 (≈ 8.34 µM)	2.5 (≈ 4.17 µM)	0.08 (≈ 0.133 µM)	5 (≈ 8.34 µM)	CO[C@@H]1[C@@H](OC(=O)c2ccc(C)[nH]2)[C@@H](O)[C@H](Oc2ccc3c(OCCSc4ncc[nH]4)cc(=O)oc3c2C)OC1(C)C
2.5 (≈ 4.62 µM)	10 (≈ 18.5 µM)	0.5	5 (≈ 9.25 µM)	40 (≈ 74 µM)	2.5 (≈ 4.62 µM)	> 40	CO[C@@H]1[C@@H](OC(=O)c2ccc(C)[nH]2)[C@@H](O)[C@H](Oc2ccc3c(CN4CCCC4)cc(=O)oc3c2C)OC1(C)C
0.3 (≈ 0.529 µM)	1.2 (≈ 2.11 µM)	0.22	1.2 (≈ 2.11 µM)	> 20	0.6 (≈ 1.06 µM)	10 (≈ 17.6 µM)	CO[C@@H]1[C@@H](OC(=O)c2ccc(C)[nH]2)[C@@H](O)[C@H](Oc2ccc3c(OCCn4ccnc4)cc(=O)oc3c2C)OC1(C)C
0.6 (≈ 0.907 µM)	1.2 (≈ 1.81 µM)	0.33	10 (≈ 15.1 µM)	5 (≈ 7.56 µM)	0.3 (≈ 0.453 µM)	5 (≈ 7.56 µM)	CO[C@@H]1[C@@H](OC(=O)c2ccc(C)[nH]2)[C@@H](O)[C@H](Oc2ccc3c(OCCN4CCNC(c5ccccc5)C4)cc(=O)oc3c2C)OC1(C)C (stereo partly drawn)

SMILES	MIC [1] [µg/mL]	MIC (Streptococcus pyogenes) [µg/mL]	Ratio [2]	MIC (Staphylococcus aureus [3]) [µg/mL]	MIC (Staphylococcus aureus [4]) [µg/mL]	MIC (Staphylococcus aureus [5]) [µg/mL]	MIC (Enterococcus faecium) [µg/mL]
CO[C@@H]1[C@@H](OC(=O)c2ccc(C)[nH]2)[C@@H](O)[C@H](Oc2ccc3c(O)c(NC(=O)c4ccc(O)c(CC=C(C)C)c4)c(=O)oc3c2Cl)OC1(C)C [CHLOROBIOCIN]	< 0.04	< 0.04	–	< 0.04	0.15 (≈ 0.215 µM)	< 0.04	–
CO[C@@H]1[C@@H](OC(N)=O)[C@@H](O)[C@H](Oc2ccc3c(O)c(NC(=O)c4ccc(O)c(CC=C(C)C)c4)c(=O)oc3c2C)OC1(C)C [NOVOBIOCIN]	0.08 (≈ 0.131 µM)	0.15 (≈ 0.245 µM)	–	< 0.04	20 (≈ 32.6 µM)	< 0.04	0.3 (≈ 0.49 µM)
